Results taken from publication PMC12330940, “Targeting the MDM2‐MDM4 interaction interface reveals an otherwise therapeutically active wild‐type p53 in colorectal cancer” (Molecular Oncology, 2025).
Values belong to the molecule of their own block, whether it stands above or below them. Ends that are not written are not given here.

Assays:
p21 = details: cited from earlier work
Excerpt: P21 has also shown anti‐apoptotic activity, which could contribute to antagonizing the p53‐mediated apoptotic response.

[1] = test system: immortalized lymphoblastoid cells (LCLs) from healthy donors; assay: Viability assay of lymphoblastoid cells (LCLs); type: cell-based, human; details: 4 biological replicates, Pep3S 10 µM, Nutlin 2.5 and 10 µM
miR-34a in LoVo cells = assay: miR-34a expression RT-qPCR in LoVo; type: cell-based, human; details: 48 h, two independent experiments
Method: (§1) For human p53 signaling pathway analysis, the RT^2 Profiler PCR Array 384 well ‘Human p53 signaling pathway’ was used, following the manufacturer's instructions (Qiagen, Venlo, The Netherlands). Differences of ≥ 1.3‐fold were used as […] criteria. The hsa‐miR‐34a expression was analyzed using the TaqMan™ MicroRNA Assay (Thermo). The results were normalized to those obtained using snRNA RNU6B. Common targets of p53 and miR‐34a were evaluated using miRGator v3.0, miRTarBase, and TargetScanHuman.

p21 mRNA in HCT116 cells = assay: p21 mRNA RT-qPCR in HCT116; type: cell-based, human; details: HCT116, 48 h; three independent experiments
Method: (§2) Gene expression was evaluated 48 h after treatment using quantitative real‐time PCR (7900HT Fast; Applied Biosystems, Foster City, CA, USA). RNA extraction was performed using TRIzol® Reagent (Invitrogen, Waltham, MA, USA). RNA (500/1000 ng from cells or mice, respectively) was reverse transcribed with SMART MMLV Reverse Transcriptase (Takara, Shiga, Japan) and subjected to PCR amplification using the SensiMix SYBR Lox‐ROX Kit (Meridian Bioscience, Cincinnati, OH, USA).

p21 mRNA in LoVo cells = assay: p21 mRNA RT-qPCR in LoVo; type: cell-based, human; details: 48 h, three independent experiments
Method: as §2

miR-34a in HCT116 cells = assay: miR-34a expression RT-qPCR in HCT116; type: cell-based, human; details: HCT116, 48 h; two independent experiments
Method: as §1

[2] = test system: p21 mRNA in immortalized lymphoblastoid cells (LCLs) from healthy donors; assay: p21 mRNA RT-qPCR in lymphoblastoid cells; type: cell-based, human; details: 48 h
Excerpt: (§3) Human colorectal carcinoma cells HCT116 wt‐p53 (RRID: CVCL_0291) were purchased from Sigma‐Aldrich (Darmstadt, Germany). HCT116 exon two knockout TP53 (hereafter p53^−/−) were obtained from Vogelstein's Lab, LoVo (Johns Hopkins University, Baltimore, MD, USA) (RRID: CVCL_0399) from Vitiani's lab (Istituto Superiore di Sanità, Roma, Italy). HCT116 and LoVo cells were maintained in DMEM low glucose (Sigma‐Aldrich) supplemented with 10% FBS (Gibco™, Walthman, MA, USA), 1% penicillin–streptomycin (Sigma‐Aldrich), 1% L‐glutamine (Sigma‐Aldrich) at 37 °C, 5% CO2. Lymphoblastoid cells from healthy donors (LCLs) were grown in RPMI‐1640 (Sigma‐Aldrich), supplemented with 15% FBS (Gibco™), 1% penicillin–streptomycin (Sigma‐Aldrich), 1% L‐glutamine (Sigma‐Aldrich). Primary human myoblasts (Lonza, Basel, Switzerland) were grown in SkGM‐2 medium (Lonza). Cell lines were maintained at 37 °C, 5% CO2.
as §2

[3] = test system: p21 mRNA in shMDM4 HCT116 cells; assay: p21 mRNA in shMDM4 vs shLacZ HCT116; type: cell-based, human; details: doxycycline-inducible shMDM4 vs shLacZ HCT116, 48 h treatment
Method: ShMDM4 and shLacZ (as control) HCT116 (wt‐p53 and p53^−/−) cells were obtained by transfection of doxycycline‐inducible silencing plasmids using jetPRIME transfection reagent (Polyplus, Illkirch‐Graffenstaden, France). Cells were maintained in DMEM low glucose (Sigma‐Aldrich) supplemented with 10% FBS (Gibco™) and 1% penicillin–streptomycin (Sigma‐Aldrich). After 24 h, the cells were selected with […] puromycin (Sigma‐Aldrich). Silencing was induced with 1 μg·mL^−1 doxycycline.
as §2

p53 = details: ref [4]; cited from earlier work
Excerpt: The extent to which these additional events could be attributed to the dissociated proteins MDM4 or MDM2 remains to be ascertained. Indeed, the potential persistence of MDM2 and MDM4 binding to p53 represents a unique feature of p53 reactivating molecules. […] This is probably mediated by the binding of MDM2 to p53, which, although with reduced efficiency, controls the p53 protein levels. In ad ...

[4] = test system: SESN2, IGF1R, STAT1 mRNA in HCT116 cells; assay: SESN2, IGF1R, STAT1 mRNA RT-qPCR in HCT116; type: cell-based, human; details: HCT116, 48 h
Method: as §2

[5] = test system: p21 mRNA in HCT116 xenograft tumors; assay: p21 mRNA RT-qPCR in xenograft tumors; type: in vivo, mouse; details: n Pep3 = 3, n Pep3S = 5
Method: as §2
Animal studies obtained ethical approval from the Ministry of Health (Protocol N° 79/2023‐PR) and were conducted conforming to the institutional guidelines in compliance with named Italian legislation (DL N116, GU, suppl. 40, 18‐2‐1992). Inbred BALB/c nude mice (CAnN.Cg‐Foxn1^nu/J) obtained from the CNR‐IBBC‐EMMA‐Infrafrontier animal facility were housed in two per cage in the CNR‐IBBC‐EMMA‐Infrafrontier animal house. All animals were housed under controlled lighting conditions (daily light period, 07.00–19.00 h) at 20 ± 2° C, with ad libitum access to food (Emma 23, Mucedola, Settimo Milanese, Italy) and chlorinated filtered water. […] Tumor growth was followed and analyzed by luciferase activity over time. […] Bioluminescence acquisitions were performed with a Hybrid OI/CT system (MILabs, Houten, The Netherlands), and the images were analyzed using MILABS‐OI‐PP software. […]

[6] = ref [20], cited from earlier work
Excerpt: To test Pep3S's tumor‐suppressive properties, we focused on colorectal cancer (CRC) cell lines. The frequency of the wild‐type (wt) p53 gene in CRC is approximately 40%, which offers a potential window for the therapeutic application of p53‐reactivating molecules. […] BIK levels were increased by Pep3S. […] To understand the molecular pathways underlying Pep3S activity, we analyzed differentially expressed genes (DEGs) by Pep3S and Pep3 compared to a mix of Scramble3 and Scramble3S in HCT116 cells using a p53‐transcriptional array containing 80 validated targets of the human p53 pat ...

[7] = test system: human p53 pathway target genes in HCT116 cells; assay: RT2 Profiler PCR Array Human p53 signaling pathway, HCT116; type: cell-based
Method: as §1

human MDM2 = human MDM2 (Homo sapiens, UniProt Q00987); assay: in vitro affinity to MDM2 (dissociation constant); details: Scramble3S with spread ± 0.028, binding method not described
human MDM2, sequence (Q00987 whole entry): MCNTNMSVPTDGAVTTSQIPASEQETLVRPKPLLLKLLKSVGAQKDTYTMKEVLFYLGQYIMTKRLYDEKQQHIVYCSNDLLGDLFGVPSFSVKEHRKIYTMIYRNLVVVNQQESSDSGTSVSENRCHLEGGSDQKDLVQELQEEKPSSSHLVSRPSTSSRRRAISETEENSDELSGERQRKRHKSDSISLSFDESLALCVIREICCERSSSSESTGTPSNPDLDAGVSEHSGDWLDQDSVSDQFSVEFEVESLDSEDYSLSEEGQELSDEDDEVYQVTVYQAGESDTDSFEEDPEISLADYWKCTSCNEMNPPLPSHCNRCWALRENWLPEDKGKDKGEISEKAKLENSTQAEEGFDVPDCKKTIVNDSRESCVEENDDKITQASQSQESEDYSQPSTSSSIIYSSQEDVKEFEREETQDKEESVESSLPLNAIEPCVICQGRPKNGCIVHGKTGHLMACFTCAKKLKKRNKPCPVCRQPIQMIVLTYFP

HCT116 cells (wt-p53) = assay: PrestoBlue viability assay, 2D HCT116; type: cell-based, human; details: 2D HCT116, 96 h, three independent experiments
Excerpt: as §3
Treatments (0.1% DMSO, 10 μM all peptides, 20 μM cisplatin, 10 μM Nutlin‐3a (Sigma‐Aldrich)) were administered every other day. […]
Cell viability was monitored every other day using PrestoBlue™ HS Cell Viability Reagent (Thermo Fisher Scientific). The fluorescence signal was read at 45′ (for 2D) or 1 h (for spheroids) using a spectrophotometer plate reader (Varioskan™ LUX; Thermo Fisher Scientific). Fluorescence excitation/emission: 570/610 nm.

human myoblasts = assay: Proliferation of human myoblasts; type: cell-based; details: healthy human myoblasts
Excerpt: as §3

[8] = comparative analysis, miRGator v3.0, miRTarBase, TargetScanHuman
[9] = heat map of DEGs modulated by Pep3 only

Molecule: OCc1ccc(-c2ccc(-c3ccc(CO)s3)o2)s1 [RITA]
p21 protein levels (p21; ref (43)): caused the downregulation of p21 protein levels

Molecule: COc1ccc(C2=N[C@@H](c3ccc(Cl)cc3)[C@@H](c3ccc(Cl)cc3)N2C(=O)N2CCNC(=O)C2)c(OC(C)C)c1 [Nutlin‐3a]
cell proliferation [1]: highly potent
miR-34a levels (miR-34a in LoVo cells): induced miR‐34a expression
p21 mRNA levels (p21 mRNA in HCT116 cells): strongly induced p21 expression
p21 mRNA levels (p21 mRNA in LoVo cells): strongly induced p21 expression
miR-34a levels (miR-34a in HCT116 cells): induced miR‐34a expression
p21 levels [2]: highly potent
effect of MDM4 silencing on p21 regulation [3]: ineffective in the upregulation mediated by Nutlin‐3a
p53 levels (p53): increase in p53 levels
levels of some p53 targets by RT-qPCR ([4]; Fig. S3C,D): opposite activity by upregulating the levels of some of these targets
SESN2 mRNA level ([4]; two independent experiments): strong upregulation of SESN2

Kd (human MDM2): 0.245 ± 0.029 nM
Molecule: Ac-KEIQLVIKVFIA-NH2 [Pep3]
p21 mRNA levels [5]: Although less severe, Pep3 caused a similar decrease
p21 mRNA levels (p21 mRNA in HCT116 cells): Although less severe, Pep3 caused a similar decrease
p21 mRNA levels (p21 mRNA in LoVo cells): Although less severe, Pep3 caused a similar decrease
mediators of pro-apoptotic activity ([6]; PIG3 and BIK): mediated by the activation of the pro‐oxidant p53‐targets PIG3 and BIK
IC50 ([6]; compared with Pep3S IC50, cell line not given): 10000 nM
pro-apoptotic activity linked to oxidative stress [6]: linked to the activation of an oxidative stress response
shared DEGs varying significantly between Pep3 and Pep3S ([7]; HCT116): 11/16
p21 levels in p53 array ([7]; HCT116, p53 array): not significantly altered
downregulated DEGs that are miR-34a targets, common to both peptides [7, 8]: 8 of the 10
uniquely downregulated DEGs that are miR-34a targets [7, 8]: 4/7
ADGRB1 expression [7, 9]: 0.64
BAX expression [7, 9]: 0.55
EGFR expression [7, 9]: 0.50
FASLG expression [7, 9]: 3.64
MCL1 expression [7, 9]: 0.59
NFKB1 expression [7, 9]: 0.51
PRKCA expression [7, 9]: 0.53
PTEN expression [7, 9]: 0.59
DEGs unique to the peptide ([7]; vs Scramble mix, HCT116): 8/33
DEG mRNA levels by RT-qPCR ([4]; SESN2, IGF1R, STAT1, two independent experiments): confirmed the downregulation of some of these DEGs

Molecule: VAIKF [Scramble3S]
Kd (human MDM2): 0.447 nM

Molecule: Cc1ccnc(NC(c2cccc(Cl)c2Cl)c2ccc3cccnc3c2O)c1 (centres unmarked) [MMRi64]
p21 levels (p21; ref [21]): minimal induction of p21 followed by its strong downregulation

Molecule: KVFIA [Pep3S]
cell proliferation [1]: ineffective in reducing p21 levels and cell proliferation
IC50 (HCT116 cells (wt-p53)): 5540 nM
cell proliferation (human myoblasts): did not alter cell proliferation
Kd (human MDM2): 0.152 ± 0.007 nM
